Laboratory results: ChEMBL document CHEMBL6109109, “Fatty acid binding protein 5 inhibitors as novel anticancer agents against metastatic castration-resistant prostate cancer” (Bioorg Med Chem, 2025)

Assays:
[1] = Cytotoxicity against mouse RCaP cells assessed as cell growth inhibition at 0.00001 uM measured after 72 hrs by MTT assay relative to control; type: functional; conditions: dose 1e-05 µM, read-out: GI
PC-3 [2] = test: Cytotoxicity against human PC-3 cells assessed as cell growth inhibition at 0.00001 uM measured after 72 hrs by MTT assay relative to control; type: functional; conditions: dose 1e-05 µM, read-out: GI
[3] = Cytotoxicity against mouse RCaP cells assessed as cell growth inhibition at 10 uM measured after 72 hrs by MTT assay relative to control; type: functional; conditions: read-out: GI
[4] = Cytotoxicity against mouse RCaP cells assessed as cell growth inhibition at 0.001 uM measured after 72 hrs by MTT assay relative to control; type: functional; conditions: read-out: GI
[5] = Cytotoxicity against mouse RCaP cells assessed as cell growth inhibition at 0.01 uM measured after 72 hrs by MTT assay relative to control; type: functional; conditions: read-out: GI
PC-3 [6] = test: Cytotoxicity against human PC-3 cells assessed as cell growth inhibition at 0.0001 uM measured after 72 hrs by MTT assay relative to control; type: functional; conditions: read-out: GI
PC-3 [7] = test: Cytotoxicity against human PC-3 cells assessed as cell growth inhibition at 10 uM measured after 72 hrs by MTT assay relative to control; type: functional; conditions: read-out: GI
PC-3 [8] = test: Cytotoxicity against human PC-3 cells assessed as cell growth inhibition at 1 uM measured after 72 hrs by MTT assay relative to control; type: functional; conditions: read-out: GI
[9] = Cytotoxicity against mouse RCaP cells assessed as cell growth inhibition at 1 uM measured after 72 hrs by MTT assay relative to control; type: functional; conditions: read-out: GI
[10] = Cytotoxicity against mouse RCaP cells assessed as cell growth inhibition at 0.0001 uM measured after 72 hrs by MTT assay relative to control; type: functional; conditions: read-out: GI
[11] = Cytotoxicity against mouse RCaP cells assessed as cell growth inhibition at 0.1 uM measured after 72 hrs by MTT assay relative to control; type: functional; conditions: read-out: GI
PC-3 [12] = test: Cytotoxicity against human PC-3 cells assessed as cell growth inhibition at 0.001 uM measured after 72 hrs by MTT assay relative to control; type: functional; conditions: read-out: GI
PC-3 [13] = test: Cytotoxicity against human PC-3 cells assessed as cell growth inhibition at 0.01 uM measured after 72 hrs by MTT assay relative to control; type: functional; conditions: read-out: GI
PC-3 [14] = test: Cytotoxicity against human PC-3 cells assessed as cell growth inhibition at 0.1 uM measured after 72 hrs by MTT assay relative to control; type: functional; conditions: read-out: GI
[15] = Cytotoxicity against mouse RCap cells assessed as reduction in cell viability measured after 72 hrs by MTT assay; type: functional, cell-based
PC-3 [16] = test: Cytotoxicity against human PC-3 cells assessed as reduction in cell viability measured after 72 hrs by MTT assay; type: functional, cell-based; conditions: PC-3, 72 h
[17] = Binding affinity to FABP5 (unknown origin); design: species or system Homo sapiens
[18] = Cytotoxicity against human WI-38 cells assessed as reduction in cell viability measured after 72 hrs by MTT assay; type: toxicity, cell-based
PC-3 [19] = test: Induction of apoptosis in human PC-3 cells assessed as viable cells at 15 uM measured after 72 hrs by Annexin V-FITC/propidium iodide staining based FACS analysis (reference value: 97.62%); type: functional; conditions: read-out: Activity
PC-3 [20] = test: Induction of apoptosis in human PC-3 cells assessed as late apoptotic cells at 15 uM measured after 72 hrs by Annexin V-FITC/propidium iodide staining based FACS analysis (reference value: 1.73%); type: functional
PC-3 [21] = test: Induction of apoptosis in human PC-3 cells assessed as early apoptotic cells at 15 uM measured after 72 hrs by Annexin V-FITC/propidium iodide staining based FACS analysis (reference value: 0.54%); type: functional
PC-3 [22] = test: Induction of apoptosis in human PC-3 cells assessed as necrotic cells at 15 uM measured after 72 hrs by Annexin V-FITC/propidium iodide staining based FACS analysis (reference value: 0.11%); type: functional

SMILES | IC50 [15] [µM] | IC50 (PC-3 [16]) [µM] | Ki [17] [µM] | IC50 at 72 h [18] [µM] | further results
CC[C@@]1(O)C(=O)OCc2c1cc1n(c2=O)Cc2cc3c(CN(C)C)c(O)ccc3nc2-1 [TOPOTECAN] | – | – | – | – | inhibition of growth at 10 pM [1]: -1.57%; inhibition of growth at 10 pM (PC-3 [2]): -4.4%; inhibition of growth at 10 µM [3]: 89.6%; inhibition of growth at 0.001 µM [4]: 0.1%; inhibition of growth at 0.01 µM [5]: 9.17%; inhibition of growth at 0.0001 µM (PC-3 [6]): -2.77%; inhibition of growth at 10 µM (PC-3 [7]): 69.2%; inhibition of growth at 1 µM (PC-3 [8]): 67.1%; inhibition of growth at 1 µM [9]: 93.6%; inhibition of growth at 0.0001 µM [10]: -3.2%; inhibition of growth at 0.1 µM [11]: 66%; inhibition of growth at 0.001 µM (PC-3 [12]): 1.13%; inhibition of growth at 0.01 µM (PC-3 [13]): 20.1%; inhibition of growth at 0.1 µM (PC-3 [14]): 55.9%
O=C(O)[C@H]1[C@H](c2ccccc2)[C@H](C(=O)Oc2cc(-c3ccc4c(c3)OCO4)ccc2Br)[C@H]1c1ccccc1 | 14.8 | 9.36 | 0.37 | 24.8 | –
Cn1cc(-c2ccc(-c3ccc4c(c3)OCO4)cc2OC(=O)[C@H]2[C@@H](c3ccccc3)[C@@H](C(=O)O)[C@@H]2c2ccccc2)cn1 | 6.16 | 10.3 | 0.76 | 26.4 | –
COc1ccccc1[C@H]1[C@H](C(=O)O)[C@H](c2ccccc2OC)[C@H]1C(=O)Oc1cccc(-c2ccc(F)cc2)c1 | 12.3 | 10.8 | 1.03 | 29.2 | –
O=C(O)[C@@H]1[C@@H](c2ccccc2)[C@H](C(=O)OCc2cccc3ccccc23)[C@H]1c1ccccc1 | 23.9 | 13.1 | 5.08 | 27.1 | –
N#CCc1ccc(-c2ccccc2)cc1OC(=O)[C@H]1[C@@H](c2ccccc2)[C@@H](C(=O)O)[C@@H]1c1ccccc1 | 30.1 | 12.3 | 2.37 | 55.2 | –
O=C1CCc2cc(-c3cccc(OC(=O)[C@H]4[C@@H](c5ccccc5)[C@@H](C(=O)O)[C@@H]4c4ccccc4)c3)ccc2N1 | 15.6 | 13.1 | 7.59 | 77 | –
Cn1cc(-c2ccc(-c3ccc4c(c3)OCO4)cc2OC(=O)[C@H]2[C@@H](c3ccccc3)[C@H](C(=O)O)[C@@H]2c2ccccc2)cn1 | 8.82 | 9.66 | 0.29 | 24.1 | –
O=C(O)[C@H]1[C@@H](c2ccccc2)[C@H](C(=O)Oc2cccc3ccccc23)[C@@H]1c1ccccc1 | 33.4 | 15.9 | – | 83.3 | viability at 15 µM (PC-3 [19]): 95.4%; Activity (PC-3 [20]): 3.13%; Activity (PC-3 [21]): 1.22%; Activity (PC-3 [22]): 0.21%
